Results: the NIST ThermoML archive (doi:10.1021/je5008372)

Columns and labels:
[1] = refractive index (Na D-line) (dimensionless); mn = molality of the nth substance listed, in mol/kg; settings: 86.8 kPa, Liquid, Standard Abbe refractometry
[2] = mn = molality of the nth substance listed, in mol/kg; settings: 86.8 kPa, Liquid; for viscosity: Capillary tube (Ostwald / Ubbelohde) method; for speed of sound: Sing-around technique in a fixed-path interferometer; for mass density: Vibrating tube method

CC(=O)Oc1ccccc1C(=O)O [2-acetoxybenzoic acid] + CC#N
Settings	mass density, [2] [kg/m3]	refractive index, [1]	speed of sound, [2] [m/s]	viscosity, [2] [mPa·s]
288.15 K, m1 = 0.0402	789.756	1.3467	1319.9	0.394
288.15 K, m1 = 0.0834	792.285	1.3476	1320.3	0.398
288.15 K, m1 = 0.11	793.822	1.3483	1320.6	0.402
288.15 K, m1 = 0.1394	795.495	1.349	1320.8	0.405
288.15 K, m1 = 0.1708	797.242	1.3498	1321.1	0.408
288.15 K, m1 = 0.2076	799.277	1.3505	1321.4	0.412
288.15 K, m1 = 0.2453	801.312	1.3513	1321.8	0.416
288.15 K, m1 = 0.2705	802.661	1.3519	1322	0.419
288.15 K, m1 = 0.3006	804.272	1.3527	1322.2	0.422
298.15 K, m1 = 0.0402	778.992	1.3422	1279.3	0.349
298.15 K, m1 = 0.0834	781.508	1.3431	1279.7	0.353
298.15 K, m1 = 0.11	783.035	1.3439	1279.9	0.355
298.15 K, m1 = 0.1394	784.705	1.3446	1280.2	0.358
298.15 K, m1 = 0.1708	786.446	1.3453	1280.4	0.362
298.15 K, m1 = 0.2076	788.483	1.3462	1280.7	0.365
298.15 K, m1 = 0.2453	790.515	1.347	1281	0.369
298.15 K, m1 = 0.2705	791.87	1.3477	1281.2	0.371
298.15 K, m1 = 0.3006	793.487	1.3484	1281.5	0.375
308.15 K, m1 = 0.0402	768.176	1.3378	1239	0.316
308.15 K, m1 = 0.0834	770.675	1.3388	1239.3	0.319
308.15 K, m1 = 0.11	772.198	1.3397	1239.5	0.322
308.15 K, m1 = 0.1394	773.857	1.3404	1239.7	0.325
308.15 K, m1 = 0.1708	775.597	1.3412	1240	0.328
308.15 K, m1 = 0.2076	777.624	1.3423	1240.3	0.331
308.15 K, m1 = 0.2453	779.658	1.3431	1240.5	0.334
308.15 K, m1 = 0.2705	781.016	1.3438	1240.8	0.337
308.15 K, m1 = 0.3006	782.624	1.3446	1241	0.34
318.15 K, m1 = 0.0402	757.205	1.3333	1198.8	0.292
318.15 K, m1 = 0.0834	759.697	1.3345	1199.2	0.295
318.15 K, m1 = 0.11	761.21	1.3352	1199.3	0.297
318.15 K, m1 = 0.1394	762.869	1.3359	1199.5	0.3
318.15 K, m1 = 0.1708	764.615	1.3367	1199.7	0.303
318.15 K, m1 = 0.2076	766.635	1.3377	1199.9	0.306
318.15 K, m1 = 0.2453	768.667	1.3388	1200.2	0.309
318.15 K, m1 = 0.2705	770.017	1.3395	1200.4	0.311
318.15 K, m1 = 0.3006	771.63	1.3403	1200.7	0.314
